The values that follow come from patent US11440923B2, “Substituted macrocyclic indole derivatives” (Bayer Aktiengesellschaft, priority 2017, dated 2022).

The test system of one assay is PA-1 cells. The experiment in a line: Antiproliferation assay PA-1 (Assay 7). It counts as cell-based. Particulars: Homo sapiens, read-out: Antiproli PA-1 IC50 median. On the procedure: (§1) Assessment of the Anti-Proliferative Effect of Compounds in Different Cell Lines
(§2) The impact of compounds on the proliferation of different cell lines was assessed using the CellTiter-Glo® Luminescent Cell Viability reagent from Promega (G7573).
(§3) In parallel, cells were plated in a reference (day 0) plate for time zero determination. Cells were incubated in a humidified incubator at 37° C. overnight.
(§4) Rim wells were excluded. The cells were incubated for 72 h hours in a humidified incubator at 37° C. The day 0 plate was measured by adding 30 μL/well of CTG solution (CellTiter-Glo® Luminescent Cell Viability reagent, Promega G7573) to time zero wells in the reference plate followed by a 10 minutes incubation and luminescence reading at 0.1 ms. using the PHERAstar FS microplate reader (BMG Labtech).
(§5) After 72 h incubation, the treated plates were measured in the same way as the day 0 plate mentioned above. The Bella DRC Master Sheet was used to calculate IC50s, with CI=day 0 values and C0=DMSO control values.

The subject of another assay is SK-MEL-2 cells. Description: Antiproliferation assay SK-MEL-2 (Assay 7). Format: cell-based. As to conditions: Homo sapiens, read-out: Antiproli SK-MEL-2 IC50 median. An outline of the steps: (§6)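 Cell proliferation was measured with CellTiter-Glo luminescence after 72 h compound exposure at 37 °C. A day 0 reference plate, read after overnight incubation, set the time-zero value. IC50s were calculated relative to day 0 (CI) and DMSO control (C0) values.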

The subject of a further assay is SNU-16 cells. Description: Antiproliferation assay SNU-16 (Assay 7). It counts as cell-based. Particulars: Homo sapiens, read-out: Antiproli SNU-16 IC50 median. On the procedure:
as §1, §2, §3, §4, §5

The next assay relates to A-431 cells. Description: Antiproliferation assay A-431 (Assay 7). It counts as cell-based. As to conditions: Homo sapiens, read-out: Antiproli A-431 IC50 median. The procedure: as §1, §2, §3, §4, §5
For another assay, the system named is SNU-389 cells. Description: Antiproliferation assay SNU-389 (Assay 7). Particulars: 72 h, read-out: Antiproli SNU-389 IC50. It counts as cell-based. An outline of the steps: as §6
In another assay the test system is DMS-114 cells. The experiment in a line: Antiproliferation assay DMS-114 (Assay 7). As to conditions: Homo sapiens, read-out: Antiproli DM-S114 IC50 median. Format: cell-based. An outline of the steps: as §6
The target of a further assay is MCL-1 (Homo sapiens (Human), UniProt Q07820, K194A/K197A/R201A). The experiment in a line: Protein-compound interaction assay (SPR assay, Assay 9). It counts as binding. As to conditions: for Kd: KD (geometric mean); for koff: read-out: koff (geometric mean), SPR, 25° C.; for kon: read-out: kon (geometric mean), SPR, 25° C. The text has this: Assay 9 Protein-Compound Interaction Assay (SPR Assay)
Chain of MCL-1 (Q07820 whole entry K194A/K197A/R201A, looked up): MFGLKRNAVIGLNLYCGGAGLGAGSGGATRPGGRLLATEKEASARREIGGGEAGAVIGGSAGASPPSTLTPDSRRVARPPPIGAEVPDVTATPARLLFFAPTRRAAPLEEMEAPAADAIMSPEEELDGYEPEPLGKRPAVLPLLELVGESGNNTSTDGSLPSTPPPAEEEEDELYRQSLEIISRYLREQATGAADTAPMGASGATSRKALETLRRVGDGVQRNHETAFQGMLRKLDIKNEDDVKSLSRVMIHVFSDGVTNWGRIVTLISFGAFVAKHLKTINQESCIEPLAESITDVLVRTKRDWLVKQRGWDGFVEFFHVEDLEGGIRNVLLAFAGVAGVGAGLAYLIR
The ability of the compounds described in this invention to bind to MCL-1 may be determined using surface plasmon resonance (SPR). This allows for the quantification of binding in terms of the equilibrium dissociation constant (KD [M]), as well as association and dissociation rate constants (kon [1/Ms] and koff [1/s], respectively). The measurements may be performed using Biacore® T200 or Biacore® S200 instruments (GE Healthcare).
Briefly, carboxymethylated dextran biosensor chips (Series S Sensor Chip CMS, GE Healthcare) were activated with 1-ethyl-3-(3-dimethylaminopropyl)-carbodiimide hydrochloride (EDC) and N-hydroxysuccinimide (NHS) according to the supplier's instructions. MBP-MCL-1 was diluted in 1×PBS-P+ (GE Healthcare) and injected on the activated chip surface. Subsequently, a solution of 1 M ethanolamine-HCl (GE Healthcare) was injected to block unreacted groups, resulting in approximately 400-2500 response units (RU) of immobilized protein. A reference surface was generated by treatment with NHS-EDC and ethanolamine-HCl. […] Compounds were injected for 60 s followed by a dissociation time of up to 1000 s.
The double-referenced sensorgrams were fit to a simple reversible Langmuir 1:1 reaction mechanism as implemented in the Biacore® T200 and S200 evaluation software (T200 evaluation software version 2.0 and S200 evaluation software version 1.0, GE Healthcare).
For orientation: In SPR one partner is held on a chip, and binding of the other changes the refractive index at the surface.

A further assay has as its system SUDHL10 cells. Description: Antiproliferation assay SUDHL10 (Assay 7). Format: cell-based. Particulars: read-out: Antiproli SUDHL10 IC50 (median), 72 h, CellTiter-Glo. On the procedure:
as §1, §2, §3, §4, §5
A general note: Cellular ATP, detected with luciferase, serves as a proxy for viable cell number.

Another assay concerns A2780 cells. The experiment in a line: Antiproliferation assay A2780 (Assay 7). It counts as cell-based. On the procedure: as §1, §2, §3, §4, §5
A further assay has as its system MV-4-11 cells. The experiment in a line: Antiproliferation assay MV-4-11 (Assay 7). It counts as cell-based. Particulars: read-out: Antiproli MV-4-11 IC50 median; 72 h, CellTiter-Glo. The method, boiled down: as §6
Setting [1] is: DMS-114 cells, 72 h, CellTiter-Glo.
[2] abbreviates: Homo sapiens, A2780, 72 h, read-out: Antiproli A2780 IC50 median, 72 h, CellTiter-Glo.

Usually IC50 stands for the point on the concentration scale where inhibition reaches its midpoint. A word on the Kd: it is a measure of binding affinity in units of concentration. One may read the koff as the rate constant with which the complex falls apart. Broadly, the kon is the second-order rate constant of association.

Where a name gives a salt, the structure may show the parent alone. Read-outs that look alike come from different tables or passages of the source.

On to `CCc1c2c(nn1C)C(CCN1CCOCC1)OCCCCn1c(C(=O)O)c(CCCOc3cccc4cc(F)ccc34)c3ccc(F)c-2c31` (single isomer, unassigned; enantiomer 1) [Example 50, (+)-3-ethyl-4-fluoro-7-{3-[(6-fluoronaphthalen-1-yl)oxy]propyl}-2-methyl-15-[2-(morpholin-4-yl)ethyl]-2,10,11,12,13,15-hexahydropyrazolo[4′,3′:9,10][1,6]oxazacycloundecino[8,7,6-hi]indole-8-carboxylic Acid (Enantiomer 1)], for which the IC50 is 222 nM with PA-1 cells (PA-1, 72 h, CellTiter-Glo); 505 nM in the assay on SK-MEL-2 cells (SK-MEL-2, 72 h, CellTiter-Glo); 321 nM with SNU-16 cells (SNU-16, 72 h, CellTiter-Glo); 336 nM with A-431 cells (A-431, 72 h, CellTiter-Glo); 455 nM in the assay with SNU-389 cells (CellTiter-Glo); 153 nM in the assay with DMS-114 cells (setting [1]). At MCL-1 (SPR, 25° C.), the dissociation constant Kd is 0.36 nM. The off-rate (koff) at MCL-1 is 0.009 s⁻¹. The kon at MCL-1 is 2.5e+07 M⁻¹ s⁻¹.

Take `Cc1c2c(nn1C)C(C)OCCCCn1c(C(=O)O)c(CCCOc3cccc4ccccc34)c3cccc-2c31` (single isomer, unassigned; stereoisomer 1) [Example 2, 2,3,15-trimethyl-7-[3-(naphthalen-1-yloxy)propyl]-2,10,11,12,13,15-hexahydropyrazolo[4′,3′:9,10][1,6]oxazacycloundecino[8,7,6-hi]indole-8-carboxylic Acid Trifluoroacetic Acid Salt (Stereoisomer 1)]: the half-maximal inhibitory concentration (IC50) in the assay with SUDHL10 cells came out at 2900 nM. The IC50 in the assay on A2780 cells (read-out: Antiproli A2780 IC50 median, 72 h, CellTiter-Glo, listed as 02) was 22800 nM. Moreover, at MCL-1 (SPR, 25° C.), the affinity, expressed as Kd, was 11 nM. On MCL-1, the off-rate (koff) amounted to 0.067 s⁻¹ and the on-rate constant (kon) is 5.9e+06 M⁻¹ s⁻¹.

As to `Cc1c2c(nn1C)C(C)OCCCCn1c(C(=O)O)c(CCCOc3cccc4ccccc34)c3cccc-2c31` (single isomer, unassigned; stereoisomer 2) [Example 3, 2,3,15-trimethyl-7-[3-(naphthalen-1-yloxy)propyl]-2,10,11,12,13,15-hexahydropyrazolo[4′,3′:9,10][1,6]oxazacycloundecino[8,7,6-hi]indole-8-carboxylic Acid Trifluoroacetic Acid Salt (Stereoisomer 2)], the half-maximal inhibitory concentration (IC50) came out at 7000 nM with SUDHL10 cells and 29900 nM in the assay on A2780 cells (setting [2]).

Regarding `Cc1c2c(nn1C)C(C)OCCCCn1c(C(=O)O)c(CCCOc3cccc4ccccc34)c3cccc-2c31` (racemic) [Example 1, (rac)-2,3,15-trimethyl-7-[3-(naphthalen-1-yloxy)propyl]-2,10,11,12,13,15-hexahydropyrazolo[4′,3′:9,10][1,6]oxazacycloundecino[8,7,6-hi]indole-8-carboxylic Acid (Mixture of Stereoisomers)], the concentration for half-maximal inhibition (IC50) in the assay with SUDHL10 cells (Homo sapiens, SU-DHL10) is 7000 nM; in the assay with A2780 cells (Homo sapiens, A2780, 72 h, CellTiter-Glo, read-out: Antiproli A2780 IC50 median), 19500 nM.

Take `CCc1c2c(nn1C)C(CCN1CC(F)(F)C1)OCCCCn1c(C(=O)O)c(CCCOc3cccc4cc(F)ccc34)c3ccc(Cl)c-2c31` (single isomer, unassigned; (+)) [Example 78, (+)-4-chloro-15-[2-(3,3-difluoroazetidin-1-yl)ethyl]-3-ethyl-7-{3-[(6-fluoronaphthalen-1-yl)oxy]propyl}-2-methyl-2,10,11,12,13,15-hexahydropyrazolo[4′,3′:9,10][1,6]oxazacycloundecino[8,7,6-hi]indole-8-carboxylic Acid—N-ethylethanamine Salt]: the IC50 was determined as 127 nM in the assay on PA-1 cells (PA-1, 72 h, CellTiter-Glo); 197 nM in the assay with SK-MEL-2 cells (SK-MEL-2, 72 h, CellTiter-Glo); 130 nM with SNU-16 cells (SNU-16, 72 h, CellTiter-Glo); 126 nM in the assay with A-431 cells (A-431, 72 h, CellTiter-Glo); 151 nM with SNU-389 cells (CellTiter-Glo); 88.5 nM in the assay with DMS-114 cells (setting [1]). The compound further came in with a Kd at MCL-1 (SPR, 25° C.) of 0.33 nM. Also, on MCL-1, the koff turned out to be 0.0012 s⁻¹. The kon at MCL-1 was determined as 3.5e+06 M⁻¹ s⁻¹.

For `Cc1c2c(nn1C)C(CCN1CCOCC1)OCCCCn1c(C(=O)O)c(CCCOc3cccc4ccccc34)c3ccc(F)c-2c31` (racemic) [Example 7, (rac)-4-fluoro-2,3-dimethyl-15-[2-(morpholin-4-yl)ethyl]-7-[3-(naphthalen-1-yloxy)propyl]-2,10,11,12,13,15-hexahydropyrazolo[4′,3′:9,10][1,6]oxazacycloundecino[8,7,6-hi]indole-8-carboxylic Acid], in the assay on SUDHL10 cells (Homo sapiens, SU-DHL10), the half-inhibitory concentration (IC50) is 160 nM.

With `CCc1c2c(nn1C)C(CCN1CCOCC1)OCCCCn1c(C(=O)O)c(CCCOc3cccc4ccccc34)c3ccc(F)c-2c31` (single isomer, unassigned; enantiomer 1) [Example 11, 3-ethyl-4-fluoro-2-methyl-15-[2-(morpholin-4-yl)ethyl]-7-{3-[(naphthalen-1-yl)oxy]propyl}-2,10,11,12,13,15-hexahydropyrazolo[4′,3′:9,10][1,6]oxazacycloundecino[8,7,6-hi]indole-8-carboxylic Acid—N-ethylethanamine Salt (Enantiomer 1)], the IC50 in the assay on MV-4-11 cells was found to be 144 nM; in the assay with A2780 cells (setting [2]), 779 nM. For the same compound, the Kd on MCL-1 (SPR, 25° C.) turned out to be 0.61 nM. In addition, the “kon (geometric mean)” value at MCL-1 (SPR, 25° C.) is given as 6.2 E6 1/M 1/s. Moreover, the koff on MCL-1 is 0.0038 s⁻¹.

Turning to `CCc1c2c(nn1C)C(CCC(C)(C)O)OCCCCn1c(C(=O)O)c(CCCOc3cccc4cc(F)ccc34)c3ccc(Cl)c-2c31` (single isomer, unassigned; enantiomer 1) [Example 75, (+)-4-chloro-3-ethyl-7-{3-[(6-fluoronaphthalen-1-yl)oxy]propyl}-15-(3-hydroxy-3-methylbutyl)-2-methyl-2,10,11,12,13,15-hexahydropyrazolo[4′,3′:9,10][1,6]oxazacycloundecino[8,7,6-hi]indole-8-carboxylic Acid—N-ethylethanamine Salt (Enantiomer 1)], the IC50 turned out to be 118 nM in the assay on PA-1 cells (PA-1, 72 h, CellTiter-Glo); 170 nM in the assay with SK-MEL-2 cells (SK-MEL-2, 72 h, CellTiter-Glo); 152 nM in the assay with SNU-16 cells (SNU-16, 72 h, CellTiter-Glo); 135 nM in the assay on A-431 cells (A-431, 72 h, CellTiter-Glo); 133 nM with SNU-389 cells (CellTiter-Glo); 77.4 nM with DMS-114 cells (setting [1]). The compound further registered a Kd on MCL-1 (SPR, 25° C.) of 0.24 nM. The koff on MCL-1 is 0.0022 s⁻¹. Besides, the kon at MCL-1 turned out to be 9e+06 M⁻¹ s⁻¹.

Take `CCc1c2c(nn1C)C(CCC1CCOCC1)OCCCCn1c(C(=O)O)c(CCCOc3cccc4cc(F)ccc34)c3ccc(Cl)c-2c31` (single isomer, unassigned; enantiomer 1) [Example 63, (+)-4-chloro-3-ethyl-7-{3-[(6-fluoronaphthalen-1-yl)oxy]propyl}-2-methyl-15-[2-(oxan-4-yl)ethyl]-2,10,11,12,13,15-hexahydropyrazolo[4′,3′:9,10][1,6]oxazacycloundecino[8,7,6-hi]indole-8-carboxylic Acid—N-ethylethanamine Salt (Enantiomer 1)]: the 50% inhibitory concentration (IC50) with PA-1 cells (PA-1, 72 h) is 204 nM; with SK-MEL-2 cells (SK-MEL-2, 72 h), 324 nM; in the assay with SNU-16 cells (SNU-16, 72 h), 276 nM; in the assay with A-431 cells (A-431, 72 h), 272 nM; in the assay on SNU-389 cells, 183 nM; in the assay with DMS-114 cells (DMS-114, 72 h), 156 nM. At MCL-1 (SPR, 25° C.), this compound came in with a dissociation constant (Kd) of 1.4 nM. Also, the off-rate (koff) on MCL-1 worked out at 0.0016 s⁻¹. Moreover, the on-rate (kon) at MCL-1 is 1.1e+06 M⁻¹ s⁻¹.
